From patent US20220409629A1, “BENZODIAZEPINE DERIVATIVES FOR TREATING A RESPIRATORY SYNCYTIAL VIRUS (RSV) INFECTION” (priority 2019, published 2022)
Where two headings read alike, the source gives them in different places.

Legend:
RSV A2 = assay: RSV plaque reduction assay; type: cell-based, respiratory syncytial virus (RSV); settings: human respiratory syncytial virus, HepG2; Hep-G2 cells, RSV A2, mean of at least two experiments
Outline: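 RSV A2 (100 PFU/well) premixed with eight serial compound dilutions, added to confluent Hep-G2 monolayers for 2 h at 37° C, then held 2 days under CMC overlay containing compound (DMEM, 2% FBS). Plaques immunostained (HRP/TrueBlue) and counted; EC50 is 50% reduction versus virus control from 4-parameter fit, mean of ≥2 experiments.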

[1] = Liver microsomal stability, rat; type: in vitro ADME; settings: pH 7.4; rat liver microsomes, 0.5 mg/mL protein, 1 μM compound, NADPH; >80% remaining at 45 min denoted >140; read-out: Liver Microsomal Stability: t1/2 (min); rat
Outline: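 Pooled liver microsomes (0.5 mg/mL protein) in 0.1 M phosphate pH 7.4 with 1 μM compound (0.25% DMSO), started with 1 mM NADPH at 37° C; sampled 0-45 min, minus-NADPH control 45 min. LC-MS/MS depletion slope gave t1/2 and CLint.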

[2] = Liver hepatocyte stability, rat; type: in vitro ADME; settings: rat hepatocytes, 3 μM compound, 60 min, >80% remaining at 60 min denoted >186, read-out: Liver Hepatocyte Stability: t1/2 (min)
Method: (§1) Cryopreserved pooled hepatocytes were purchased from a reputable commercial supplier and stored in liquid nitrogen prior to use. Williams E media supplemented with 2 mM L-glutamine and 25 mM HEPES and test compound (final substrate concentration 3 μM; final DMSO concentration 0.25%) are pre-incubated at 37° C. prior to the addition of a suspension of cryopreserved hepatocytes (final cell density 0.5×10^6 viable cells/mL in Williams E media supplemented with 2 mM L-glutamine and 25 mM HEPES) to initiate the reaction. The final incubation volume is 500 μL. Two control compounds were included with each species, alongside appropriate vehicle control. The reactions are stopped by transferring 50 μL of incubate to 100 μL acetonitrile containing internal standard at the appropriate time points. Samples were removed at 6 time points (0, 5, 15, 30, 45 and 60 min) over the course of a 60 min experiment. The termination plates are centrifuged at 2500 rpm at 4° C. for 30 min to precipitate the protein. Following protein precipitation, the sample supernatants were combined in cassettes of up to 4 compounds and analysed using generic LC-MS/MS conditions. From a plot of ln peak area ratio (compound peak area/internal standard peak area) against time, the gradient of the line is determined. Subsequently, half-life (t1/2) and intrinsic clearance (CLint) were calculated.

[3] = Liver hepatocyte stability, dog; type: in vitro ADME; settings: dog hepatocytes, 3 μM compound, 60 min, >80% remaining at 60 min denoted >186, read-out: Liver Hepatocyte Stability: t1/2 (min)
Method: as §1

[4] = Dog pharmacokinetics in vivo; settings: plasma, male Beagle dogs; for concentration at 8 h: read-out: C 8 h; for AUC(0-t): read-out: PO AUClast
Method: The pharmacokinetics of compounds of the invention were studied in vivo in dogs.
Male Beagle dogs were treated with experimental compounds via intravenous administration (n=2; 0.5 mg/kg) or oral administration (n=2; 3 mg/kg or 4 mg/kg). Compounds were formulated as a solution in 20% dimethylacetamide/80% (2-hydroxypropyl)-β-cyclodextrin (20% w/v) (IV administration) or a solution in 10% dimethylacetamide/90% (2-hydroxypropyl)-β-cyclodextrin (20% w/v) (PO administration). […] Serial blood samples were collected from the jugular vein at 0.03, 0.08, 0.25, 0.5, 1, 2, 4, 6, 8 and 24 h post IV dosing of compound, and at 0.08, 0.25, 0.5, 1, 2, 4, 6, 8 and 24 h post oral dosing of compound, and plasma was prepared by centrifugation and stored immediately at −80° C. Samples were subsequently thawed, prepared for analysis by protein precipitation with acetonitrile, and analysed by tandem LCMS using electrospray ionisation using a matrix-matched calibration curve. PK parameters were calculated from the resulting data.

[5] = IV 0.5 mg/kg, read-out: IV t1/2 (converted)
[6] = PO 4 mg/kg, read-out: PO t1/2 (converted)

| Structure (SMILES) | EC50 (RSV A2) | half-life at 1 µM [1] | half-life at 3 µM [2] | half-life at 3 µM [3] | concentration at 8 h ([4]; Dose: IV/PO 0.5/4 mg/kg) | Cmax ([4]; Dose: IV/PO 0.5/4 mg/kg) | bioavailability ([4]; Dose: IV/PO 0.5/4 mg/kg) | Vd ([4]; IV 0.5 mg/kg) | clearance ([4]; IV 0.5 mg/kg) | half-life [4, 5] | AUC(0-t) ([4]; PO 4 mg/kg) | half-life [4, 6] | half-life [1] | half-life [2] | half-life [3] | concentration at 8 h ([4]; Dose: IV/PO 0.5/3 mg/kg) | Cmax ([4]; Dose: IV/PO 0.5/3 mg/kg) | bioavailability ([4]; Dose: IV/PO 0.5/3 mg/kg) | AUC(0-t) ([4]; PO 3 mg/kg) | half-life ([4]; PO 3 mg/kg, read-out: PO t1/2 (converted)) |
| --- | --- | --- | --- | --- | --- | --- | --- | --- | --- | --- | --- | --- | --- | --- | --- | --- | --- | --- | --- | --- |
| CCn1ncc(C(=O)N[C@H]2N=C(c3ccccc3)c3ccccc3NC2=O)c1-c1ccc(NC(C)C)nc1F [Example 3, 1-Ethyl-5-[2-fluoro-6-(propan-2-ylamino)pyridin-3-yl]-N-[(3S)-2-oxo-5-phenyl-1,3-dihydro-1,4-benzodiazepin-3-yl]pyrazole-4-carboxamide] | 97 nM | 88.8 min | 73.8 min | 67.4 min | – | – | – | – | – | – | – | – | – | – | – | – | – | – | – | – |
| CCn1ncc(C(=O)N[C@H]2N=C(c3ccccc3)c3ccccc3NC2=O)c1-c1ccc(NC2CC2)nc1F [Example 4, 1-Ethyl-5-[2-fluoro-6-(cyclopropylamino)pyridin-3-yl]-N-[(3S)-2-oxo-5-phenyl-1,3-dihydro-1,4-benzodiazepin-3-yl]pyrazole-4-carboxamide] | 42 nM | – | – | – | 56.1 ng/mL | 780 ng/mL | 41.5% | 0.79 L/kg | 10.3 mL/min/kg | 1 h | 2680 ng·h/mL | 2.3 h | 68.5 min | 47.3 min | 42.1 min | – | – | – | – | – |
| O=C(N[C@H]1N=C(c2ccccc2)c2cccc(F)c2NC1=O)c1cnn(C2CCOCC2)c1-c1ccc(NC2CC2)nc1F [Example 21, 5-[6-(Cyclopropylamino)-2-fluoropyridin-3-yl]-N-[(3S)-9-fluoro-2-oxo-5-phenyl-1,3-dihydro-1,4-benzodiazepin-3-yl]-1-(oxan-4-yl)pyrazole-4-carboxamide] | 21 nM | – | – | – | – | – | – | 1.3 L/kg | 4.2 mL/min/kg | 7.6 h | – | – | 87.6 min | 284 min | > 186 min | 146 ng/mL | 500 ng/mL | 33.6% | 3610 ng·h/mL | 5.6 h |
| CC(C)Nc1ccc(-c2c(C(=O)N[C@H]3N=C(c4ccccc4)c4cccc(F)c4NC3=O)cnn2C2CCOCC2)c(F)n1 [Example 22, N-[(3S)-9-fluoro-2-oxo-5-phenyl-1,3-dihydro-1,4-benzodiazepin-3-yl]-5-[2-fluoro-6-(propan-2-ylamino)pyridin-3-yl]-1-(oxan-4-yl)pyrazole-4-carboxamide] | 40 nM | – | – | – | 281 ng/mL | 692 ng/mL | 40.1% | 1.4 L/kg | 4.1 mL/min/kg | 4.9 h | 6050 ng·h/mL | 6.8 h | > 140 min | 120 min | 90.7 min | – | – | – | – | – |
| CCNc1ccc(-c2c(C(=O)N[C@H]3N=C(c4ccccc4)c4cccc(F)c4NC3=O)cnn2C2CCOCC2)c(F)n1 [Example 24, 5-[6-(Ethylamino)-2-fluoropyridin-3-yl]-N-[(3S)-9-fluoro-2-oxo-5-phenyl-1,3-dihydro-1,4-benzodiazepin-3-yl]-1-(oxan-4-yl)pyrazole-4-carboxamide] | 33 nM | – | – | – | 67 ng/mL | 450 ng/mL | 22.7% | 0.86 L/kg | 6.5 mL/min/kg | 1.5 h | 2300 ng·h/mL | 2.4 h | 484 min | 228 min | 139 min | – | – | – | – | – |
